{"source": "patent US12630856B2", "about": "“Identification of host-targeting modulators of bacterial uptake and assay for quantifying intracellular bacteria” (priority 2020, dated 2026)", "format_in_all_cases": "cell-based", "key": {"E. coli": {"test_system": "E. coli", "assay": "Axenic growth of bacteria (CFU-less assay / optical density)", "settings": "varying amounts of compound, FIG. 19", "excerpt": "In some embodiments, methods for measuring bacterial growth rate in axenic culture are described. The methods comprise: • (a) expressing in the bacteria a fluorescent protein; • (b) growing the bacteria in axenic culture; and • (c) measuring fluorescence in the culture at regular intervals.\nThe CFU-less assay can reliably detect compound cytotoxicity in axenic medium. The compound(s) of interest were combined with either the host cell or the pathogen in an axenic medium to analyze toxicity of the compound(s) on the host cell or pathogen. The graphs below show an example of how the compounds from the screen affect axenic growth of E. coli. The effects of the compounds on axenic growth of E. coli were minimal."}, "[1]": {"test_system": "Escherichia coli uptake by RAW 264.7 macrophages", "assay": "CFU-less assay (CLA) screen of 2,400 approved drugs for modulators of bacterial uptake"}, "Salmonella species": {"test_system": "Salmonella species", "assay": "Attenuation of infection by Salmonella"}, "Pseudomonas species": {"test_system": "Pseudomonas species", "assay": "Attenuation of infection by Pseudomonas"}, "Klebsiella species": {"test_system": "Klebsiella species", "assay": "Attenuation of infection by Klebsiella"}, "Acinetobacter species": {"test_system": "Acinetobacter species", "assay": "Attenuation of infection by Acinetobacter"}, "[2]": {"test_system": "intracellular and extracellular bacterial strains in RAW 264.7 macrophages", "assay": "Uptake and intracellular survival of bacterial strains in RAW 264.7 macrophages (FIG. 21)", "excerpt": "This confirms the results of the screen and expands potential uses. Quinacrine was previously known as an antiparasitic, an anti-inflammatory agent, intrapleural sclerosing agent, a pneumothorax prophylaxis, Creutzfeldt-Jakob disease (CJI)) therapy, and as an anticancer agent (FIG. 21)."}, "bacterial uptake": {"test_system": "bacterial uptake", "assay": "CFU plating to confirm uptake enhancement", "description": "CFU plating was performed to confirm the enhancement."}}, "note": "Structures can show the parent of a compound that is named as a salt."}
{"compound": "Polymyxin B sulfate", "values": [{"measurement": "gram-negative bacterial growth in axenic culture", "setting": "E. coli", "result": "inhibition of gram-negative bacterial growth"}]}
{"compound": "CCN(CC)CCCC(C)Nc1c2ccc(Cl)cc2nc2ccc(OC)cc12", "note": "(stereo not shown) [Quinacrine hydrochloride]", "values": [{"measurement": "intracellular load of bacteria", "setting": "[1]; screen of 2,400 compounds", "result": "decreases the intracellular load of bacteria"}, {"measurement": "infection by Salmonella species", "setting": "Salmonella species", "result": "attenuated infection"}, {"measurement": "infection by Pseudomonas species", "setting": "Pseudomonas species", "result": "attenuated infection"}, {"measurement": "infection by Klebsiella species", "setting": "Klebsiella species", "result": "attenuated infection"}, {"measurement": "infection by Acinetobacter species", "setting": "Acinetobacter species", "result": "attenuated infection"}, {"measurement": "intracellular survival of both intracellular and extracellular bacterial strains", "setting": "[2]", "result": "inhibitory effect"}, {"measurement": "uptake of both intracellular and extracellular bacterial strains (dT)", "setting": "[2]; FIG. 21", "result": "inhibitory effect (increased dT)"}]}
{"compound": "CO[C@H]1C[C@H](O[C@H]2[C@H](C)O[C@@H](O[C@@H]3/C(C)=C/C[C@@H]4C[C@@H](C[C@]5(C=C[C@H](C)[C@@H](C6CCCCC6)O5)O4)OC(=O)[C@@H]4C=C(C)[C@@H](O)[C@H]5OC/C(=C\\C=C\\[C@@H]3C)[C@]54O)C[C@@H]2OC)O[C@@H](C)[C@@H]1O", "note": "[Doramectin]", "values": [{"measurement": "bacterial uptake in the presence of the compound (FIG. 2)", "setting": "[1]", "result": "increase in bacterial uptake"}, {"measurement": "confirmation of uptake enhancement by CFU plating", "setting": "bacterial uptake", "result": "enhancement"}]}
